Test results taken from ChEMBL document CHEMBL3045319, “Synthesis, antitumor activity, and structureactivity relationship of some 4H-pyrano[3,2-h]quinoline and 7H-pyrimido[4,5:6,5]pyrano[3,2-h]quinoline derivatives” (Med Chem Res, 2013).
≈ marks a conversion by molar mass, not a printed value.

Tests used:
[1] = Cytotoxicity against Homo sapiens (human) HCT cells assessed as cell viability at 50 ug/ml after 48 hr by MTT assay relative to control; format: functional; details: read-out: Activity
[2] = Cytotoxicity against Homo sapiens (human) HCT cells assessed as cell viability at 6.25 ug/ml after 48 hr by MTT assay relative to control; format: functional; details: read-out: Activity
[3] = Cytotoxicity against Homo sapiens (human) HCT cells assessed as cell viability at 1.56 ug/ml after 48 hr by MTT assay relative to control; format: functional; details: read-out: Activity
HepG2 [4] = experiment: Cytotoxicity against Homo sapiens (human) HepG2 cells assessed as cell viability at 25 ug/ml after 48 hr by MTT assay relative to control; format: functional; details: HepG2, 48 h, read-out: Activity
MCF7 [5] = experiment: Cytotoxicity against Homo sapiens (human) MCF7 cells after 48 hr by MTT assay; format: functional, cell-based; details: MCF7, 48 h
HepG2 [6] = experiment: Cytotoxicity against Homo sapiens (human) HepG2 cells assessed as cell viability at 3.125 ug/ml after 48 hr by MTT assay relative to control; format: functional; details: HepG2, 48 h, read-out: Activity
MCF7 [7] = experiment: Cytotoxicity against Homo sapiens (human) MCF7 cells assessed as cell viability at 50 ug/ml after 48 hr by MTT assay relative to control; format: functional; details: MCF7, 48 h, read-out: Activity
HepG2 [8] = experiment: Cytotoxicity against Homo sapiens (human) HepG2 cells after 48 hr by MTT assay; format: functional, cell-based; details: Homo sapiens, HepG2, 48 h; read-out: IC50
MCF7 [9] = experiment: Cytotoxicity against Homo sapiens (human) MCF7 cells assessed as cell viability at 6.25 ug/ml after 48 hr by MTT assay relative to control; format: functional; details: MCF7, 48 h, read-out: Activity
MCF7 [10] = experiment: Cytotoxicity against Homo sapiens (human) MCF7 cells assessed as cell viability at 25 ug/ml after 48 hr by MTT assay relative to control; format: functional; details: MCF7, 48 h, read-out: Activity
HepG2 [11] = experiment: Cytotoxicity against Homo sapiens (human) HepG2 cells assessed as cell viability at 6.25 ug/ml after 48 hr by MTT assay relative to control; format: functional; details: HepG2, 48 h, read-out: Activity
[12] = Cytotoxicity against Homo sapiens (human) HCT cells assessed as cell viability at 12.5 ug/ml after 48 hr by MTT assay relative to control; format: functional; details: read-out: Activity
HepG2 [13] = experiment: Cytotoxicity against Homo sapiens (human) HepG2 cells assessed as cell viability at 50 ug/ml after 48 hr by MTT assay relative to control; format: functional; details: HepG2, 48 h, read-out: Activity
HepG2 [14] = experiment: Cytotoxicity against Homo sapiens (human) HepG2 cells assessed as cell viability at 1.56 ug/ml after 48 hr by MTT assay relative to control; format: functional; details: HepG2, 48 h, read-out: Activity
[15] = Cytotoxicity against Homo sapiens (human) HCT cells assessed as cell viability at 25 ug/ml after 48 hr by MTT assay relative to control; format: functional; details: read-out: Activity
HepG2 [16] = experiment: Cytotoxicity against Homo sapiens (human) HepG2 cells assessed as cell viability at 12.5 ug/ml after 48 hr by MTT assay relative to control; format: functional; details: HepG2, 48 h, read-out: Activity
MCF7 [17] = experiment: Cytotoxicity against Homo sapiens (human) MCF7 cells assessed as cell viability at 1.56 ug/ml after 48 hr by MTT assay relative to control; format: functional; details: MCF7, 48 h, read-out: Activity
[18] = Cytotoxicity against Homo sapiens (human) HCT cells assessed as cell viability at 3.125 ug/ml after 48 hr by MTT assay relative to control; format: functional; details: read-out: Activity
[19] = Cytotoxicity against Homo sapiens (human) HCT cells after 48 hr by MTT assay; format: functional, cell-based
MCF7 [20] = experiment: Cytotoxicity against Homo sapiens (human) MCF7 cells assessed as cell viability at 12.5 ug/ml after 48 hr by MTT assay relative to control; format: functional; details: MCF7, 48 h, read-out: Activity
MCF7 [21] = experiment: Cytotoxicity against Homo sapiens (human) MCF7 cells assessed as cell viability at 3.125 ug/ml after 48 hr by MTT assay relative to control; format: functional; details: MCF7, 48 h, read-out: Activity

Compound | viability at 50 µg/mL [1] | viability at 6.25 µg/mL [2] | viability at 1.56 µg/mL [3] | viability at 25 µg/mL (HepG2 [4]) | IC50 (MCF7 [5]) | viability at 3.125 µg/mL (HepG2 [6]) | viability at 50 µg/mL (MCF7 [7]) | IC50 (HepG2 [8]) | viability at 6.25 µg/mL (MCF7 [9]) | viability at 25 µg/mL (MCF7 [10]) | viability at 6.25 µg/mL (HepG2 [11]) | viability at 12.5 µg/mL [12] | viability at 50 µg/mL (HepG2 [13]) | viability at 1.56 µg/mL (HepG2 [14]) | viability at 25 µg/mL [15] | viability at 12.5 µg/mL (HepG2 [16]) | viability at 1.56 µg/mL (MCF7 [17]) | viability at 3.125 µg/mL [18] | IC50 [19] | viability at 12.5 µg/mL (MCF7 [20]) | also measured
CC(=O)NC1=C(C#N)C(c2ccc(Br)cc2)c2ccc3ccc(C)nc3c2O1 (configuration not stated) | 22.5% | 86.8% | 99.8% | 51.2% | 13.5 µg/mL (≈ 31.1 µM) | 90.7% | 23.4% | 26.5 µg/mL (≈ 61 µM) | 65.8% | 32.1% | 81.6% | 71.8% | 32.6% | 98.8% | 44.5% | 68.6% | 94.8% | 95.1% | 21.3 µg/mL (≈ 49 µM) | 51.2% | viability at 3.125 µg/mL (MCF7 [21]): 79.9%
Nc1ncnc2c1C(c1ccc(Cl)cc1)c1ccc3cccnc3c1O2 (configuration not stated) | 26.4% | 74.6% | 83.1% | 67.6% | 44.6 µg/mL (≈ 124 µM) | 90.4% | 45.4% | > 50 µg/mL | 81.2% | 68.8% | 83.3% | 62.1% | 64.3% | 94.4% | 42% | 73.3% | 100% | 78.6% | 19.2 µg/mL (≈ 53.2 µM) | 75.8% | viability at 3.125 µg/mL (MCF7 [21]): 94.5%
Cc1ccc2ccc3c(c2n1)Oc1ncnc(N)c1C3c1ccc(Cl)cc1 (configuration not stated) | 41.6% | 90.5% | 100% | 37% | > 50 µg/mL | 60.2% | 70.2% | 6.3 µg/mL (≈ 16.8 µM) | 94.5% | 81.7% | 50.8% | 78.9% | 28.3% | 68.3% | 51.1% | 43.7% | 100% | 98.8% | 26.4 µg/mL (≈ 70.4 µM) | 89.2% | viability at 3.125 µg/mL (MCF7 [21]): 97.3%
CCO/C=N/C1=C(C#N)C(c2ccc(Cl)cc2)c2ccc3cccnc3c2O1 (configuration not stated) | 23.9% | 73.3% | 93.4% | 57.1% | 45.4 µg/mL (≈ 116 µM) | 91% | 43% | 31.1 µg/mL (≈ 79.8 µM) | 81.4% | 67.1% | 86.6% | 67.1% | 39.4% | 97.6% | 51.4% | 72.3% | 98.3% | 81.7% | 25.7 µg/mL (≈ 65.9 µM) | 74.2% | viability at 3.125 µg/mL (MCF7 [21]): 93%
CCO/C=N/C1=C(C#N)C(c2ccc(Cl)cc2)c2ccc3ccc(C)nc3c2O1 (configuration not stated) | 15.2% | 35.3% | 75.5% | 69% | 23.8 µg/mL (≈ 58.9 µM) | 96.4% | 37.5% | 44.5 µg/mL (≈ 110 µM) | 76.6% | 48.6% | 85.1% | 26% | 45.2% | 100% | 18.4% | 79.4% | 96.1% | 54.9% | 3.6 µg/mL (≈ 8.91 µM) | 63.4% | viability at 3.125 µg/mL (MCF7 [21]): 87.4%
CCO/C=N/C1=C(C#N)C(c2ccc(Br)cc2)c2ccc3ccc(C)nc3c2O1 (configuration not stated) | 19.8% | 46.5% | 81.9% | 62.9% | > 50 µg/mL | 94.6% | 56.6% | 37.1 µg/mL (≈ 82.8 µM) | 87.6% | 67.4% | 83.3% | 34% | 34.6% | 100% | 23.3% | 76.4% | 98.1% | 62.9% | 5.8 µg/mL (≈ 12.9 µM) | 79.2% | viability at 3.125 µg/mL (MCF7 [21]): 95.4%
CN(C)/C=N/C1=C(C#N)C(c2ccc(Cl)cc2)c2ccc3cccnc3c2O1 (configuration not stated) | 49.5% | 88.1% | 100% | 77.8% | 29.3 µg/mL (≈ 75.3 µM) | 98.3% | 37.7% | 47.9 µg/mL (≈ 123 µM) | 83.5% | 58% | 93% | 77.7% | 48.1% | 100% | 71.3% | 85.6% | 98.7% | 98.5% | 49.4 µg/mL (≈ 127 µM) | 75.6% | viability at 3.125 µg/mL (MCF7 [21]): 92%
